Data taken from US7368267B2, “Method for the oxidation of aromatic compounds” (BASF Aktiengesellschaft, priority 2001, dated 2008).
Where two headings read alike, the source gives them in different places.

Columns and labels:
[1] = Partition coefficients in DOP/M9 (glucose) biphasic system; format: physicochemical
E. coli [2] = test: Toxic / inhibitory effect of substrate, products and organic phase on biomass growth of the cells; details: in the aqueous phase
E. coli [3] = test system: E. coli
E coli = details: at a pH of 7; cited from earlier work
[4] = concentration in organic phase (dioctyl phthalate) relative to aqueous phase (M9 medium, glucose), triplicate

Molecule	Partition coefficient [1, 4]	concentration which inhibits biomass growth (E. coli [2]) [mM]	further results
Cc1ccc(C=O)cc1C [3,4-Dimethylbenzaldehyde, 3,4-dimethylbenzaldehyde]	906 ± 20	1812	–
Cc1ccc(C(=O)O)cc1C [3,4-Dimethylbenzoic acid, 3,4-dimethylbenzoic acid]	–	–	Partition coefficient [1]: 0.188 ± 0.005; concentration which inhibits biomass growth (E. coli [3]): 16 mM
Cc1ccc(CO)cc1C [3,4-Dimethylbenzyl alcohol, 3,4-dimethylbenzyl alcohol]	50 ± 3	100	concentration above which it has a toxic effect on the cells (E. coli [2]): > 100 mM
CC(=O)O [acetic acid]	–	–	concentration with inhibitory effect on cell growth (E coli): 5 g/L
pseudocumene (trimethylbenzene)	24300 ± 1500	–	concentration above which it is toxic to the cells (E. coli [2]): 15-25%
